According to US10875829B1, “Azetidine derivatives useful as modulators of cortical catecholaminergic neurotransmission” (Integrative Research Laboratories Sweden AB, priority 2016, dated 2020):
Counter-ions that a name gives are not always drawn. Like-named read-outs stand apart in the source and are kept apart here. Marks after values point to notes of the source that are not given here.

Legend:
NA, DA and 5-HT = assay: In vivo brain microdialysis: extracellular monoamines in striatum and frontal cortex; parameters: species or system Sprague-Dawley rats; details: 50 μmol/kg s.c., n=1-3; for response vs control in vivo at 50 µmol/kg: Rattus norvegicus, sc
Description: The microdialysis technique is a well-established technique for measuring extracellular levels of neurotransmitters (Ungerstedt, J Int Med, 1991, 230; 365-73). The microdialysis technique was used to measure the effect of compounds disclosed herein upon the efflux of monoamine transmitters (NA, DA and 5-HT) in striatum and frontal cortex in conscious, freely moving rats.
Male Sprague-Dawley rats weighing 280-320 g were used throughout the experiments. Before the experiment the animals were housed in groups, maximum five animals in each cage, with free access to water and food. The animals were housed at least one week prior to surgery and use in the experiments.
A modified version (Waters et al., J Neural Transm Gen Sect, 1994, 98(1); 39-55) of the !-shaped probe (Santiago and Westerink, N-S Arch Pharmacol, 1990, 342; 407-14) with the AN69 polyacrylonitrile/sodium methyl sulfonate copolymer (HOSPAL; o.d/i.d. 310/220 μm: dialysis membrane (Gambro, Lund, Sweden) was used in the microdialysis experiments. In the dorsal striatum, probes with an exposed length of 3 mm of dialysis membrane were used and in the prefrontal cortex the corresponding length was 2.5 mm. The rats were operated under isoflurane inhalation anesthesia while mounted into a Kopf stereotaxic instrument. Coordinates were calculated relative to bregma; dorsal striatum AP+1.0, ML±2.6, DV 6.2; Pf cortex, AP+3.2, ML±1.2, DV −4.0 8°, according to Paxinos and Watson (New York, Academic Press, 1986; FIG. 8 and FIG. 14). The dialysis probe was positioned in a burr hole under stereotaxic guidance and cemented with phosphatine dental cement (DAB Dental).
The rats were housed individually in cages for 48 h before the dialysis experiments, allowing them to recover from surgery and minimizing the risk of drug interactions with the anesthetics during the following experiments. During this period the rats had free access to food and water. On the day of the experiment the rats were connected to a micro-perfusion pump via a swivel and were replaced in the cage where they could move freely within its confinements. The perfusion medium was a Ringer's solution containing (in mmol/l): NaCl; 140, CaCl2); 1.2, KCl; 3.0, MgCl2; 1.0 (Moghaddam and Bunney. Neurochem., 1989, 53; 652-4). The pump was set to a perfusion speed of 2 μl/min and 40 μl sample volume were collected every 20 min.
The rats were perfused for at least 40 min before sampling began. Five fractions of each 20 min were collected and the last three were used for the establishment of the baseline. After collection of baseline fractions, the pharmacological challenge to the dialysis experiment started. Test compounds were administrated by injection (s.c.) in a volume of 5 ml/kg, with 0.9% NaCl (saline) as vehicle.
The analytical method were based on two chromatographic separations dedicated for amines or acids. Two chromatographic systems shared a common auto injector with a 10-port valve and two sample loops for simultaneous injection on the two systems.
The acids were separated by reversed phase chromatography while the amines were separated by reversed phase ion pairing chromatography preceded by a reverse phase separation in a column switching configuration. Three separation columns (Luna C18 (2), dp 3 μm, 2 mm i.d., Phenomenex) of different lengths were used. Electrochemical detection was accomplished on glassy carbon electrodes (MF-1000, Bioanalytical Systems, Inc.)
The aqueous mobile phase (0.6 ml/min) for the acid system contained citric acid (40 mM, dipotassium hydrogen phosphate 10 mM, methanol 8-11% (v/v) and EDTA 0.1 mM. Column length was 30 mm and detection potential relative to Ag/AgCl reference was 0.74V.
The aqueous ion pairing mobile phase (0.4 ml/min) for the amine system contained citric acid 5 mM, sodium citrate 10 mM, acetone 9% (v/v), tetrahydrofurane 3% (v/v), dodecane sulphonic acid 0.025 mM, and EDTA 0.1 mM. Column length was 50 mm and the preceding column was 20 mm. […]

[1] = target: Human 5-HT Transporter (SERT (h)) (Homo sapiens (Human), UniProt P31645); assay: Radioligand binding assay, human 5-HT transporter ([3H]imipramine); details: 1 h; single concentration 1.0 E-5 M, duplicate, mean values
Protocol: (The measurement was performed as described in Tatsumi, M., Jansen, K., Blakely, R. D. and Richelson, E. (1999), Pharmacological profile of neuroleptics at human monoamine transporters, Eur. J. Pharmacol.
Cell membrane homogenates (12 μg protein) are incubated for 60 min at 22° C. with 2 nM [3H]imipramine in the absence or presence of the test compound in a buffer containing 50 mM Tris-HCl (pH 7.4), 120 mM NaCl, 5 mM KCl and 0.1% BSA.
Nonspecific binding is determined in the presence of 10 μM imipramine.
Following incubation, the samples are filtered rapidly under vacuum through glass fiber filters (GF/B, Packard) presoaked with 0.3% PEI and rinsed several times with an ice-cold buffer containing 50 mM Tris-HCl and 150 mM NaCl using a 96-sample cell harvester (Unifilter, Packard). The filters are dried then counted for radioactivity in a scintillation counter (Topcount, Packard) using a scintillation cocktail (Microscint 0, Packard).
The results are expressed as a percent inhibition of the control radioligand specific binding
(§1) […] Reported values are mean values.

[2] = target: Human Norepinephrine Transporter (NET (h)) (Homo sapiens (Human), UniProt P23975); assay: Radioligand binding assay, human norepinephrine transporter ([3H]nisoxetine); details: 2 h; single concentration 1.0 E-5 M, duplicate, mean values
Protocol: (The measurement was performed as described in Pacholczyk, T., Blakely, R. D. and Amara, S. G. (1991), Expression cloning of a cocaine- and antidepressant-sensitive human noradrenaline transporter, Nature, 350: 350)
(§2) Cell membrane homogenates (20 μg protein) are incubated for 120 min at 4° C. with 1 nM [3H]nisoxetine in the absence or presence of the test compound in a buffer containing 50 mM Tris-HCl (pH 7.4), 120 mM NaCl and 5 mM KCl. Nonspecific binding is determined in the presence of 1 μM desipramine. Following incubation, the samples are filtered rapidly under vacuum through glass fiber filters (GF/B, Packard) presoaked with 0.3% PEI and rinsed several times with ice-cold 50 mM Tris-HCl using a 96-sample cell harvester (Unifilter, Packard). The filters are dried then counted for radioactivity in a scintillation counter (Topcount, Packard) using a scintillation cocktail (Microscint 0, Packard).
(§3) The results are expressed as a percent inhibition of the control radioligand specific binding.
as §1

[3] = target: Human Dopamine Transporter (DAT (h)) (Homo sapiens (Human), UniProt Q01959); assay: Radioligand binding assay, human dopamine transporter ([3H]BTCP); details: 2 h; single concentration 1.0 E-5 M, duplicate, mean values
Protocol: (The measurement was performed as described in Pristuba, Z. B., Wilson, J. M., Hoffman, B. J., Kish, S. J. and Nisnik, H. B. (1994), Pharmacological heterogeneity of the cloned and native human dopamine transporter: disassociation of [3H]WIN 35,428 and [3H]GBR 12,935 binding, Mol. Pharmacol., 45: 125)
Cell membrane homogenates (20 μg protein) are incubated for 120 min at 4° C. with 4 nM
as §2, with “[3H]BTCP” for “Cell membrane homogenates (20 μg protein) are incubated for 120 min at 4° C. with 1 nM [3H]nisoxetine”, “7.4) and 100” for “7.4), 120”, “NaCl.” for “NaCl and 5 mM KCl.”, “10” for “1”, “BTCP.” for “desipramine.”
as §3, §1

[4] = frontal cortex, read-out: 5-HT FC, maximum effect compared to baseline ± SEM
[5] = frontal cortex, read-out: DA FC, maximum effect compared to baseline ± SEM
[6] = frontal cortex, read-out: NA FC, maximum effect compared to baseline ± SEM
[7] = striatum, read-out: DA Stri, maximum effect compared to baseline ± SEM
[8] = striatum, read-out: 5-HT Stri, maximum effect compared to baseline ± SEM

Sequence of Human Norepinephrine Transporter (NET (h)) (P23975 whole entry): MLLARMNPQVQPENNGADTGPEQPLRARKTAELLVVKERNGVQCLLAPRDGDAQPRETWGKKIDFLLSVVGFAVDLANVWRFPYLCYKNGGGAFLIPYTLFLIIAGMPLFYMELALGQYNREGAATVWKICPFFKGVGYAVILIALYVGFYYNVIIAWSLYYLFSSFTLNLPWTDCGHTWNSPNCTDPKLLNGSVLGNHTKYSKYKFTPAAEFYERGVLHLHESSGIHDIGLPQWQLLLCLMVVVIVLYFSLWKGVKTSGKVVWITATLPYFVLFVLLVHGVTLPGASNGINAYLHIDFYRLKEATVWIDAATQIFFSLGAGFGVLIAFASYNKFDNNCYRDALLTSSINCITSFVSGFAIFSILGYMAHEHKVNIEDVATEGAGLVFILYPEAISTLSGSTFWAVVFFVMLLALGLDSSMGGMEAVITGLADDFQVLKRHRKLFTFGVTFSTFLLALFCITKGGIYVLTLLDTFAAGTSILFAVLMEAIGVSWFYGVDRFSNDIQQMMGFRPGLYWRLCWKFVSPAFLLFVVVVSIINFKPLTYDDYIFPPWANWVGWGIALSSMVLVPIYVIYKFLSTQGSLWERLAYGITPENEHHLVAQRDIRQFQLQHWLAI
Sequence of Human 5-HT Transporter (SERT (h)) (P31645 whole entry): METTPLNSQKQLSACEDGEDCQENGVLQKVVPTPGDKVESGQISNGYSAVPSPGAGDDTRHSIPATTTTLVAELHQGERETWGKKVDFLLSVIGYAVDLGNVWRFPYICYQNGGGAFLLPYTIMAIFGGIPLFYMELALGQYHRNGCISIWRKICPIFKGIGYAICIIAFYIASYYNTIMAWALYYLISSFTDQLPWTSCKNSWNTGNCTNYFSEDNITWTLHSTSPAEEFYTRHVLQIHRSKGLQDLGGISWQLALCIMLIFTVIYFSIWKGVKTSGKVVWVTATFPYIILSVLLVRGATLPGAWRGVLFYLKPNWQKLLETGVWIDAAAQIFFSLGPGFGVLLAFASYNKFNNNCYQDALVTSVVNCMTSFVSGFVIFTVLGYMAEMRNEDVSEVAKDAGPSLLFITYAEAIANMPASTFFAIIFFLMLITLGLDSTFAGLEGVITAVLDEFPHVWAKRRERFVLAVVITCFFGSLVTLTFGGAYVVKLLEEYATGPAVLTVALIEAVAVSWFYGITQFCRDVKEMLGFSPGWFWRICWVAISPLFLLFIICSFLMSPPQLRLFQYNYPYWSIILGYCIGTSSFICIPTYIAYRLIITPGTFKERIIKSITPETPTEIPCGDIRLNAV
Sequence of Human Dopamine Transporter (DAT (h)) (Q01959 whole entry): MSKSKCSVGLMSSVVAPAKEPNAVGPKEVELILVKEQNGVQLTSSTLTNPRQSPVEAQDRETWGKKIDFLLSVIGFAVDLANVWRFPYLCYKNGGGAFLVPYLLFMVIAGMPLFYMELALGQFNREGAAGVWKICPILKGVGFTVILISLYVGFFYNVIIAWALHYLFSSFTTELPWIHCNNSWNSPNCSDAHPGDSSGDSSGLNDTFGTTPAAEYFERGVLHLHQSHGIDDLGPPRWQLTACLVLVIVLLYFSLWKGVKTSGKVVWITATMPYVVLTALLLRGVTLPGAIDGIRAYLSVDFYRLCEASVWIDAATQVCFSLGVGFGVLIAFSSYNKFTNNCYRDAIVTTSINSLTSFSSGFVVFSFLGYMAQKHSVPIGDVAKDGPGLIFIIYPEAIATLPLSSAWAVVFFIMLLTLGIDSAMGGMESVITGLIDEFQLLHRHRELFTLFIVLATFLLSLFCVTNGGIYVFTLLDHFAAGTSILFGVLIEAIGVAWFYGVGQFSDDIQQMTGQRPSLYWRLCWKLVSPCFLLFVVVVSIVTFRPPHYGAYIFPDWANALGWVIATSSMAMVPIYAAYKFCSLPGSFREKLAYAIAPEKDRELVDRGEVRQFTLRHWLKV

SMILES | inhibition at 10 µM [1] [%] | inhibition at 10 µM [2] [%] | inhibition at 10 µM [3] [%] | response vs control in vivo at 50 µmol/kg (NA, DA and 5-HT; [4]) [%] | response vs control in vivo at 50 µmol/kg (NA, DA and 5-HT; [5]) [%] | response vs control in vivo at 50 µmol/kg (NA, DA and 5-HT; [6]) [%] | response vs control in vivo at 50 µmol/kg (NA, DA and 5-HT; [7]) [%] | NA Stri, maximum effect compared to baseline ± SEM (NA, DA and 5-HT; striatum) | response vs control in vivo at 50 µmol/kg (NA, DA and 5-HT; [8]) [%]
Fc1ccc(OC2CNC2)c(F)c1F [Example 10, 3-(2,3,4-trifluoro-phenoxy)azetidine fumaric acid salt] | 29 | -2 | 15 | 709 ± 139 | 466 ± 161 | 799 ± 137 | 126 ± 10 | – | –
CN1CC(Oc2c(F)c(F)cc(F)c2F)C1 [Example 38, 1-methyl-3-(2,3,5,6-tetrafluorophenoxy)azetidine hydrochloric acid salt] | -11 | 6 | 11 | 148 ± 12 | 467 ± 20 | 422 ± 102 | 203 ± 8 | 306 ± 146^a % of control | 205 ± 20
Fc1c(F)c(F)c(OC2CNC2)c(F)c1F [Example 43, 3-(2,3,4,5,6-pentafluoro-phenoxy)azetidine hydrochloric acid salt] | -7.6 | -1 | 11 | – | – | – | – | – | –

Now from value to compound, other results behind:

inhibition at 10 µM [1] [%] | inhibition at 10 µM [2] [%] | inhibition at 10 µM [3] [%] | SMILES | response vs control in vivo at 50 µmol/kg (NA, DA and 5-HT; [4]) [%] | response vs control in vivo at 50 µmol/kg (NA, DA and 5-HT; [5]) [%] | response vs control in vivo at 50 µmol/kg (NA, DA and 5-HT; [6]) [%] | response vs control in vivo at 50 µmol/kg (NA, DA and 5-HT; [7]) [%] | NA Stri, maximum effect compared to baseline ± SEM (NA, DA and 5-HT; striatum) | response vs control in vivo at 50 µmol/kg (NA, DA and 5-HT; [8]) [%]
10 | 6 | 12 | Fc1cc(F)c(OC2CNC2)c(F)c1 [Example 49, 3-(2,4,6-Trifluorophenoxy)azetidine hydrochloric acid salt] | – | 391 ± 131 | 862 ± 437 | 135 ± 2 | 353^b % of control | 573 ± 1
28 | 3 | 17 | Fc1cc(OC2CNC2)cc(F)c1F [Example 50, 3-(3,4,5-Trifluorophenoxy)azetidine hydrochloric acid salt] | 752 ± 235 | 787 ± 131 | – | 139 ± 20 | – | 574 ± 45
25 | 5 | 10 | Fc1cc(F)c(OC2CNC2)cc1F [Example 51, 3-(2,4,5-Trifluorophenoxy)azetidine hydrochloric acid salt] | 998 ± 470 | 389 ± 134 | 910 ± 389 | 144 ± 4 | 475^b % of control | 663 ± 63
